Test results from US4133876A, “Antibiotic A-32887 and process for production thereof” (Eli Lilly and Company, priority 1977, dated 1979).

Columns and labels:
[1] = format: physicochemical; conditions: 80% aqueous dimethylformamide
Text: Electrometric titration of A-32887 methyl ether derivative (Na salt) in 80% aqueous dimethylformamide indicates the presence of a titratable group with a pKa value of about 5.4.

[2] = tested on: Bacillus subtilis ATCC 6633; test: Paper-disc agar-diffusion assay system (Plate Assay, Table VIII); format: cell-based; conditions: samples at 1 mg/ml, as Na-K salts; dried-broth reference standard = 100 units/ml
Experimental: (§1) The antimicrobial activity of two typical A-32887 acyl ester derivatives is compared with that of A-32887 (each as Na-K salts) in Table VIII. Activity against illustrative bacteria is measured by the conventional disc-diffusion method. In addition, the results of a conventional paper-disc agar-diffusion assay system (Plate Assay) against Bacillus subtilis ATCC 6633 are reported. The activity in this test is quantitated and uses a dried-broth reference standard which is assigned an arbitrary potency of 100 units/ml. The samples were assayed at 1 mg/ml.

Bacillus subtilis = test: Conventional disc-diffusion method (Table VIII); format: cell-based; conditions: as Na-K salts, samples at 1 mg/ml
Experimental: as §1

Staphylococcus aureus = test: Conventional disc-diffusion method (Table VIII); format: cell-based; conditions: as Na-K salts; samples at 1 mg/ml
Experimental: as §1

Micrococcus lutea = test: Conventional disc-diffusion method (Table VIII); format: cell-based; conditions: as Na-K salts; samples at 1 mg/ml
Experimental: as §1

CO[C@H]1CC[C@H](OC2[C@@H](C)[C@@](C)(O)O[C@H]([C@H]3CC[C@H]([C@@H]4CC[C@H]([C@@]5(C)O[C@]6(O[C@H](C[C@@H]7O[C@](O)([C@@H](O)C(=O)O)[C@@H](C)[C@H](OC)[C@@]7(C)OC)C[C@@H](OC)[C@H]6C)[C@H](C)[C@H]5OC)O4)O3)[C@H]2C)O[C@@H]1C.[K+].[Na+] (some centres unmarked) [A-32887]
pKa [1]: 4.60
Plate Assay [2]: 1350 units/ml
Activity by disc-diffusion, Bacillus subtilis* (Bacillus subtilis; Minimal media): 30
Activity by disc-diffusion, Bacillus subtilis (Bacillus subtilis): 18
Activity by disc-diffusion, Staphylococcus aureus (Staphylococcus aureus): 16
Activity by disc-diffusion, Micrococcus lutea (Micrococcus lutea): 16
ion-binding and ion-transport properties (Ionophore properties): exhibits ion-binding and iontransport properties
cation permeability of membranes (Ionophore properties; natural and artificial membranes): alters the cation permeability
